For 22 molecules, CC50 and EC50 results are on record in patent US11639350B2, “Heteroaryldihydropyrimidine derivatives and methods of treating hepatitis B infections” (Janssen Pharmaceutica NV, priority 2018, dated 2023).

Bounds are passed on as bounds.

Data set [1] in a line: Cytotoxicity determination in HepG2.2.15 cells (CCK-8). In kind it is cell-based. The note with it: human, 6 days of compound treatment, CCK-8, highest concentration 100 μM. In a few lines:
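CC50 is from CCK-8 absorbance (450 nm, 630 nm reference) after 2.5 h with reagent. Before that, compounds were applied for six days, top concentration 100 μM, eight threefold dilutions, one mid-course medium change, to stably HBV-integrated HepG2.2.15 cells plated at 5,000/well in 2% FBS.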

The next data set deals with HBV. Description: HBV inhibitory activity: HBV DNA in the culture medium of HepG2.2.15 cells by q-PCR. The note with it: Hepatitis B virus, HepG2.2.15, 144 h, HepG2.2.15 cells, 6 days of compound treatment, HBV DNA in culture medium by q-PCR, highest concentration 10 μM; read-out: EC50. In kind it is cell-based. Summed up:
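Supernatant HBV DNA quantified by q-PCR after a 6-day compound exposure, with one mid-course medium change, of HepG2.2.15 cells (stably integrated HBV; 40,000 per well, 2% FBS). Eight-point 3-fold series topped at 10 μM for antiviral EC50; separate plates of 5,000 cells per well with 100 μM top give CC50.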

On to `COC(=O)C1=C(C2CCN(S(=O)(=O)[C@H]3C[C@@H](CO)C3)CC2)NC(c2nccs2)=NC1c1ccc(F)cc1Cl` (relative stereo) [Compound 357B, (cis)-Methyl 4-(2-chloro-4-fluorophenyl)-6-(1-((3-(hydroxymethyl)cyclobutyl)sulfonyl)piperidin-4-yl)-2-(thiazol-2-yl)-1,4-dihydropyrimidine-5-carboxylate], for which the midpoint of cytotoxicity in data set [1], the CC50 at 6 days, lay at 15400 nM. In addition, in the data set on HBV, the EC50 stood at 36 nM.

In data set [1], `COC(=O)C1=C(C2CN(S(=O)(=O)C3CCCCC3)C2)NC(c2nccs2)=NC1c1ccc(F)cc1Cl` (centres unmarked) [Compound 82, Methyl 4-(2-chloro-4-fluorophenyl)-6-(1-(cyclohexylsulfonyl)-azetidin-3-yl)-2-(thiazol-2-yl)-1,4-dihydropyrimidine-5-carboxylate] yielded a CC50 at 6 days of 6900 nM. For the same molecule, in the data set on HBV, the EC50 was determined as 197 nM.

In the case of `CCOC(=O)C1=C(C2CCN(S(=O)(=O)c3cnn(CCCCC(=O)O)c3)CC2)NC(c2nccs2)=NC1c1ccc(F)c(F)c1Cl` (centres unmarked) [Compound 463, 5-(4-((4-(6-(2-Chloro-3,4-difluorophenyl)-5-(ethoxycarbonyl)-2-(thiazol-2-yl)-3,6-dihydropyrimidin-4-yl)piperidin-1-yl)sulfonyl)-1H-pyrazol-1-yl)pentanoic acid], in data set [1], the midpoint of cytotoxicity, the CC50 at 6 days, lay at 12200 nM. The EC50 with HBV is 31 nM.

Turning to `COCCOCCOCCOCCS(=O)(=O)N1CCC(C2=C(C(=O)OC)C(c3ccc(F)cc3Cl)N=C(c3nccs3)N2)CC1` (centres unmarked) [Compound 460, Methyl 6-(1-(2,5,8,11-tetraoxatridecan-13-ylsulfonyl)piperidin-4-yl)-4-(2-chloro-4-fluorophenyl)-2-(thiazol-2-yl)-1,4-dihydropyrimidine-5-carboxylate], half-maximal cytotoxicity in data set [1] (CC50 at 6 days) was put at 19900 nM. Also, the EC50 in the data set with HBV came out at 8 nM.

For the molecule `COC(=O)C1=C(C2CCN(S(=O)(=O)[C@H]3C[C@H](CO)C3)CC2)NC(c2nccs2)=N[C@@H]1c1ccc(F)cc1Cl` [Compound 357A, (trans)-Methyl 4-(2-chloro-4-fluorophenyl)-6-(1-((3-(hydroxymethyl)cyclobutyl)sulfonyl)piperidin-4-yl)-2-(thiazol-2-yl)-1,4-dihydropyrimidine-5-carboxylate], in data set [1], half-maximal cytotoxicity (CC50 at 6 days) was put at 13600 nM. Moreover, in the data set on HBV, the EC50 was 37 nM.

`COC(=O)C1=C(C2(F)CCN(S(C)(=O)=O)CC2)NC(c2nccs2)=NC1c1cccc(F)c1Cl` (centres unmarked) [Compound 36, Methyl 4-(2-chloro-3-fluorophenyl)-6-(4-fluoro-1-(methylsulfonyl)-piperidin-4-yl)-2-(thiazol-2-yl)-1,4-dihydropyrimidine-5-carboxylate] yielded a CC50 at 6 days in data set [1] of 20700 nM. In addition, the half-maximal effective concentration (EC50) in the data set with HBV was 153 nM.

In turn, `CCOC(=O)C1=C([C@H]2CC[C@H](C(=O)O)CC2)NC(c2nccs2)=NC1c1ccc(F)c(F)c1Br` (stereo partly drawn) [Compound 347B, (trans)-4-(6-(2-bromo-3,4-difluorophenyl)-5-(ethoxycarbonyl)-2-(thiazol-2-yl)-3,6-dihydropyrimidin-4-yl)cyclohexanecarboxylic Acid] displayed a CC50 at 6 days in data set [1] of 31400 nM. The EC50 in the data set on HBV amounted to 110 nM.

`CCOC(=O)C1=C(C2CCN(S(=O)(=O)[C@H]3C[C@H](C(=O)O)C3)CC2)NC(c2nccs2)=NC1c1cccc(F)c1Br` (relative stereo) [Compound 339B, (trans)-3-((4-(6-(2-Bromo-3-fluorophenyl)-5-(ethoxycarbonyl)-2-(thiazol-2-yl)-3,6-dihydropyrimidin-4-yl)piperidin-1-yl)sulfonyl)cyclobutanecarboxylic Acid] returned a CC50 at 6 days in data set [1] of 13400 nM. Also, the EC50 in the data set with HBV came out at 10 nM.

On to `COC(=O)C1=C(C2CCN(S(=O)(=O)C[C@H]3CC[C@H](C(=O)O)CC3)CC2)NC(c2nccs2)=NC1c1cccc(F)c1Cl` (stereo partly drawn) [Compound 454, (trans)-4-(((4-(6-(2-Chloro-3-fluorophenyl)-5-(methoxycarbonyl)-2-(thiazol-2-yl)-3,6-dihydropyrimidin-4-yl)piperidin-1-yl)sulfonyl)methyl)-cyclohexanecarboxylic Acid], for which, in data set [1], the CC50 at 6 days was 12000 nM. Also, the EC50 in the data set on HBV amounted to 37 nM.

For the molecule `COC[C@@H](O)CN([C@H]1CC[C@H](C2=C(C(=O)OC)C(c3ccc(F)c(F)c3Cl)N=C(c3nccs3)N2)CC1)S(C)(=O)=O` (single isomer, unassigned) [Compound 245D], the cytotoxic concentration (CC50) at 6 days in data set [1] is 12500 nM. The EC50 in the data set on HBV worked out at 15 nM.

Molecule `CCOC(=O)C1=C(C2CCN(S(C)(=O)=O)CC2)NC(c2ncc(F)cc2F)=NC1c1ccc(F)cc1Cl` (single isomer, unassigned) [Compound 56A, Ethyl 4-(2-chloro-4-fluorophenyl)-2-(3,5-difluoropyridin-2-yl)-6-(1-(methylsulfonyl)piperidin-4-yl)-1,4-dihydropyrimidine-5-carboxylate] displayed a CC50 at 6 days in data set [1] of over 10000 nM. Besides, the EC50 with HBV amounted to 513 nM.

The molecule `COC(=O)C1=C([C@H]2CC[C@H](O)CC2)NC(c2nccs2)=NC1c1cccc(F)c1Cl` (single isomer, unassigned) [Compound 381A, (trans)-Methyl 4-(2-chloro-3-fluorophenyl)-6-(4-hydroxycyclohexyl)-2-(thiazol-2-yl)-1,4-dihydropyrimidine-5-carboxylate] came in with a CC50 at 6 days in data set [1] of 28500 nM. Further, the EC50 in the data set with HBV came to 70 nM.

On to `COC(=O)C1=C(C2CCN(S(=O)(=O)CCC(=O)O)CC2)NC(c2nccs2)=NC1c1cccc(F)c1Cl` (centres unmarked) [Compound 114, 3-((4-(6-(2-Chloro-3-fluorophenyl)-5-(methoxycarbonyl)-2-(thiazol-2-yl)-3,6-dihydro-pyrimidin-4-yl)piperidin-1-yl)sulfonyl)propanoic Acid], for which the cytotoxic concentration (CC50) at 6 days in data set [1] was 27500 nM. Also, the EC50 in the data set with HBV was 40 nM.

Molecule `COC(=O)C1=C(C2CCN(S(=O)(=O)CC(F)(F)F)CC2)NC(c2nccs2)=NC1c1ccc(F)cc1Cl` (centres unmarked) [Compound 216, Methyl 4-(2-chloro-4-fluorophenyl)-2-(thiazol-2-yl)-6-(1-((2,2,2-trifluoroethyl)sulfonyl)piperidin-4-yl)-1,4-dihydropyrimidine-5-carboxylate] showed a 50% cytotoxic concentration (CC50) at 6 days in data set [1] of over 100000 nM. For the same molecule, in the data set with HBV, the EC50 came to 90 nM.

`CCOC(=O)C1=C([C@H]2CCC[C@H](C(=O)O)CC2)NC(c2nccs2)=NC1c1ccc(F)c(F)c1Cl` (single isomer, unassigned) [Compound 302A, (trans)-4-(−6-(2-Chloro-3,4-difluorophenyl)-5-(ethoxycarbonyl)-2-(thiazol-2-yl)-3,6-dihydropyrimidin-4-yl)cycloheptanecarboxylic Acid]: it took 15200 nM to reach half-maximal cytotoxicity in data set [1] (CC50 at 6 days). The EC50 in the data set with HBV turned out to be 24 nM.

`CCOC(=O)C1=C([C@@H]2C[C@H](NC(C)=O)CO2)NC(c2nccs2)=NC1c1cccc(F)c1Cl` (relative stereo) [Compound 262, (cis)-Ethyl 6-(4-acetamidotetrahydrofuran-2-yl)-4-(2-chloro-3-fluorophenyl)-2-(thiazol-2-yl)-1,4-dihydropyrimidine-5-carboxylate] yielded a cytotoxic concentration (CC50) at 6 days in data set [1] of 75800 nM. Besides, the EC50 with HBV was 400 nM.

Consider `COC(=O)C1=C(C2CCN(S(C)(=O)=O)CC2)NC(c2c(F)cc(F)cc2F)=NC1c1ccc(F)cc1Cl` (single isomer, unassigned) [Compound 54A, Methyl 4-(2-chloro-4-fluorophenyl)-6-(1-(methylsulfonyl)piperidin-4-yl)-2-(2,4,6-trifluorophenyl)-1,4-dihydropyrimidine-5-carboxylate], for which the CC50 at 6 days in data set [1] was determined as 31200 nM. Moreover, in the data set with HBV, the EC50 was determined as 19 nM.

In the case of `COCCS(=O)(=O)N[C@H]1CC[C@H](C2=C(C(=O)OC)C(c3ccc(F)cc3Cl)N=C(c3nccs3)N2)CC1` (single isomer, unassigned) [Compound 182A, (trans)Methyl 4-(2-chloro-4-fluorophenyl)-6-(4-(2-methoxyethylsulfonamido)cyclohexyl)-2-(thiazol-2-yl)-1,4-dihydropyrimidine-5-carboxylate], the cytotoxic concentration (CC50) at 6 days in data set [1] is 33600 nM. In addition, the EC50 in the data set on HBV was determined as 93 nM.

`COC(=O)C1=C([C@H]2CC[C@H](S(=O)(=O)N(C)C)CC2)NC(c2nccs2)=NC1c1ccc(F)c(F)c1Cl` (single isomer, unassigned) [Compound 233C, (trans)-methyl 4-(2-chloro-3,4-difluorophenyl)-6-(4-(N,N-dimethylsulfamoyl)cyclohexyl)-2-(thiazol-2-yl)-1,4-dihydropyrimidine-5-carboxylate] returned a CC50 at 6 days in data set [1] of 5600 nM. Moreover, the EC50 in the data set with HBV was 13 nM.

Turning to `CCOC(=O)C1=C(C2CCN(S(=O)(=O)CCO)CC2)NC(c2nccs2)=NC1c1ccc(F)c(F)c1Cl` (single isomer, unassigned) [Compound 356B, Ethyl 4-(2-chloro-3,4-difluorophenyl)-6-(1-((2-hydroxyethyl)sulfonyl)piperidin-4-yl)-2-(thiazol-2-yl)-1,4-dihydropyrimidine-5-carboxylate], it took 12200 nM to reach half-maximal cytotoxicity in data set [1] (CC50 at 6 days). Besides, the EC50 with HBV was determined as 6 nM.

In data set [1], `CCNS(=O)(=O)N1CC(C2=C(C(=O)OC)C(c3ccc(F)cc3Cl)N=C(c3nccs3)N2)C1` (centres unmarked) [Compound 81, 4-(2-Chloro-4-fluoro-phenyl)-6-(1-ethylsulfamoyl-azetidin-3-yl)-2-thiazol-2-yl-1,4-dihydro-pyrimidine-5-carboxylic Acid Methyl Ester] had a CC50 at 6 days of 10500 nM. In the data set on HBV, the EC50 was 119 nM.

In the case of `COC(=O)C1=C([C@H]2CC[C@@H](NS(C)(=O)=O)CC2)NC(c2ncc(F)cc2F)=NC1c1ccc(F)cc1Cl` (mixture of isomers) [Compound 399, (cis)-Methyl 4-(2-chloro-4-fluorophenyl)-2-(3,5-difluoropyridin-2-yl)-6-(4-(methylsulfonamido)cyclohexyl)-1,4-dihydropyrimidine-5-carboxylate], the midpoint of cytotoxicity in data set [1], the CC50 at 6 days, lay at 36800 nM. The half-maximal effective concentration (EC50) with HBV stood at 33 nM.

For orientation: CC50 means the concentration giving 50% cytotoxicity. A high value points to lower toxicity to the cells. What is called EC50 is the concentration that produces a half-maximal response.
